Patent publication US9814732B2, “Ulipristal acetate for prevention and treatment of breast tumors” (LABORATOIRE HRA-PHARMA, priority 2012, dated 2017)

Tests used:
GR [1] = target: T1, GR (Homo sapiens, UniProt P04150); experiment: GRE-Luc reporter gene transactivation in HBE cells; format: cell-based; conditions: DEX 100 nM, test compound 100 nM, read-out: inhibition of DEX induced luciferase transactivation (GRE-Luc)
T1 sequence (P04150 1-777): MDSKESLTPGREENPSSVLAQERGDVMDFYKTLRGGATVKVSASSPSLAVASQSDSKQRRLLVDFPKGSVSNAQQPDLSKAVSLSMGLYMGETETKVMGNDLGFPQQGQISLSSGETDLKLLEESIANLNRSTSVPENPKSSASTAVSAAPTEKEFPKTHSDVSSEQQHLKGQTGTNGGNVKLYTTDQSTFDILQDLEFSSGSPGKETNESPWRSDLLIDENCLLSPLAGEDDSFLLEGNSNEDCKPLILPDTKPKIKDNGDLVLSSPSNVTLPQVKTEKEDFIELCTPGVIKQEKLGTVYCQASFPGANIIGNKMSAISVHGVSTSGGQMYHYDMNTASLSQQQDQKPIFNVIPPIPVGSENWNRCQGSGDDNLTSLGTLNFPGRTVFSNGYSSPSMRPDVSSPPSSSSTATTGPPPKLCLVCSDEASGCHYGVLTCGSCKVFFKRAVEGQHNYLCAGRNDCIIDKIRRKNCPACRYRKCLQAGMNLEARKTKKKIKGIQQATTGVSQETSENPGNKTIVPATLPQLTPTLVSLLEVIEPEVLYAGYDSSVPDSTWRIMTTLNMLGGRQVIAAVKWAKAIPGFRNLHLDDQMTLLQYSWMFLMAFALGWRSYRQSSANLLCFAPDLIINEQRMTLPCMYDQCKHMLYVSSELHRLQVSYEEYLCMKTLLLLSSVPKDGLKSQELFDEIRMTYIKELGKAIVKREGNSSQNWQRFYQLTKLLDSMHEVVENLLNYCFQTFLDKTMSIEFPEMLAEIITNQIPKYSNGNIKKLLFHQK

GR [2] = target: T1, GR; experiment: GRE-Luc reporter gene transactivation in MCF-7 cells; format: cell-based; set-up: endogenous in cells; host or cells: MCF-7; conditions: MCF7, DEX 100 nM, test compound 100 nM, read-out: inhibition of DEX-induced luciferase transactivation (GRE-Luc)
[3] = system: normal human breast tissues xenografts; experiment: Ki67 mitotic index in normal human breast tissue xenografted in athymic mice; format: in vivo; conditions: 28 days
Description: Breast tissues samples were obtained from 6 women (aged 29-42 years) undergoing surgery for reduction mammoplasty, with their informed consent according to the French law on clinical experimentation.
(§1) Four weeks old ovariectomized female NMRInu/nu 20 athymic mice were purchased from Janvier laboratory (Le Genest Saint Isle, France). Breast tissues samples were obtained from 6 women (aged 29-42 years). Human mammary gland tissue was cut into 2×2×2 mm fragments and 4 fragments were then subcutaneously xenografted onto the back of 4 mice per group. Four treatment groups were performed: control, E2, E2+P and E2+P+UPA. Treatments were administered by grafting steroid pellets onto the neck of each mouse. The experimental conditions were initially determined by using a dose range of hormones mixed with cholesterol into the pellets. Blood sample assays were performed after 2 weeks and 4 weeks of treatment to measure plasmatic hormonal concentrations. Finally, the dose of 0.3 mg for E2 and 20 mg for P and UPA were used, as it provides the expected blood concentrations. For the control groups, pellets containing only cholesterol were used. To reproduce menstrual cycle conditions, mice were grafted on the first day of experiment with cholesterol, E2 and/or UPA containing pellets and on the fourteen day with cholesterol or progesterone containing pellets in control and E2 groups, or in E+P and E2+P+UPA groups, respectively. Twenty eight days after the start of experiment, mice were sacrificed. Blood was collected for each mouse, and serum was frozen at −20° C. until hormone concentrations
Mitotic index was calculated using the Ki67 antibody, and was determined for each breast tissue grafted into mice. Immunohistochemical analyses were performed using the BOND-MAX workstation (Leica, Nanterre, France). Paraffin sections of breast tissue xenografts were de-waxed and rehydrated before antigen retrieval using citrate retrieval solution (pH 6.0) for Ki67 antibody or EDTA retrieval solution (pH 9.0) for PR and ERalpha antibodies, for 30 min. […]

[4] = Hormone concentrations in serum of pellet-treated athymic mice; format: in vivo; conditions: female, NMRI nu/nu athymic, mouse, other: steroid pellets grafted onto the neck, E2 0.3 mg pellet, day 28, read-out: concentration in mice serum (mean±SEM)
Protocol: as §1
Estradiol was measured by radioimmunoassay using Clinical Assays Estradiol-2 (Sorin Biomedica Diagnostics SpA, Saluggia, Italia). Progesterone levels were evaluated by UPLC-MSMS using Acquity UPLC and Quattro Premier XE (Waters, Milford Mass., USA).
UPA concentrations were measured using LC-MS/MS technique by MPI Research (State College, Pa., USA).

PR = target: T2, PR (Homo sapiens, UniProt P06401); experiment: MMTV-Luc reporter gene transactivation in T-47D cells; format: cell-based; set-up: constitutively expressed high amounts of PR (progesterone receptor); endogenous in cells; host or cells: T-47D
T2 sequence (P06401 1-933): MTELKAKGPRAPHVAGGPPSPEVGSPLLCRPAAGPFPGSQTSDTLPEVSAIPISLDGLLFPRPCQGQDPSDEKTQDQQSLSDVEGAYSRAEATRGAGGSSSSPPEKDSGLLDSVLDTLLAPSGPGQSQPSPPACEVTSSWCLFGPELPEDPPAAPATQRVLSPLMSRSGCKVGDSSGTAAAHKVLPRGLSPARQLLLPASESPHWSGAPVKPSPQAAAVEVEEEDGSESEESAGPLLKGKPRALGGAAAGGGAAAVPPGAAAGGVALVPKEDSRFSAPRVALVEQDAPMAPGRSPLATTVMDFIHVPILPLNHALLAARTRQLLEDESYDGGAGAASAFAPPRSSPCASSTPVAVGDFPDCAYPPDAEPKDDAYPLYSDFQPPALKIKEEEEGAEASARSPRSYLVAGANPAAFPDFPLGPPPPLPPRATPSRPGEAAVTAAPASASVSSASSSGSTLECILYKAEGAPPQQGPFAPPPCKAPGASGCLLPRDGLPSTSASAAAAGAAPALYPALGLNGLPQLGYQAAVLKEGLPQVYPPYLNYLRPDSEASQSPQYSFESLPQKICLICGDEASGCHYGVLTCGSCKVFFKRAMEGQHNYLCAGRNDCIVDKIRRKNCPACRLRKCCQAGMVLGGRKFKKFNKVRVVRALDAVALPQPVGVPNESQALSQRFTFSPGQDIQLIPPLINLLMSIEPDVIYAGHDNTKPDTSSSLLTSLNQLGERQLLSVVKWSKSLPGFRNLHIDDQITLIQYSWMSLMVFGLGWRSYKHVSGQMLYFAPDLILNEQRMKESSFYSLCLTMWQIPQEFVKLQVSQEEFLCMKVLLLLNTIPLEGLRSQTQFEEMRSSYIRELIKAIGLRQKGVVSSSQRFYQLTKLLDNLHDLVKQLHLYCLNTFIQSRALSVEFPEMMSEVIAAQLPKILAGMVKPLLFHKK
Protocol: (§2) T-47D and MCF-7 cell lines were respectively maintained in RPMI 1640 and in DMEM medium supplemented with 10% fetal calf serum (PAA Laboratory, Les Mureaux, France). […] Normal human breast epithelial cell (HBE) primary cultures were obtained from 20 women (aged 17-50 years). […] HBE cells were maintained in HAM F10 medium (PAA Laboratory, Les Mureaux, France) containing hydrocortisone (5 ng/ml), Triiodo-L-thyronine (6.5 ng/ml), choleratoxin (10 ng/ml), transferrin (5 mg/ml), insulin (0.016 U/ml), epidermal growth factor (10 ng/ml) (Sigma, St Quentin Fallavier, France) and 5% human serum (Etablissement Français du Sang).
(§3) After seeding, cells were cultured for 24 h in serum and phenol red free medium. Then treatments were carried out in a phenol red free medium containing 5% dextran-charcoal stripped serum. […] Control cells were treated with ethanol, at 10 1:1000 final ethanol concentration alone as vehicle or E2 (10 nM).
(§4) Cells were transfected with reporter gene plasmids containing glucocorticoid and progesterone responsive elements (GRE/PRE): 1) the MMTV-Luc is a Mouse Mammary Tumor Virus Long Terminal Repeat promoter containing one GRE/PRE palindrome and three GRE/PRE hemi-palindromes upstream to firefly luciferase gene in pFC31 vector, 2) the GRELuc contains six copies of GRE/PRE palindrome upstream to firefly luciferase gene in pBL vector. When indicated, HBE cells were transfected with human PR isoforms hPR-A and hPR-B expression plasmids constructed in POP3 vectors. Rous Sarcoma Virus promoter upstream to beta galactosidase gene (pRSV-β-Gal) was transfected in each experiment as control. Transfections were performed according to the manufacturer instructions using Lipofectamine or Lipofectamine LTX Reagents (Invitrogen, Cergy-Pontoise, France) for breast cancer cell lines or HBE cells, respectively. After 24 h of transfection, breast cancer and HBE cells were treated with hormones for 24 h or 48 h, respectively. At the end of the experiment, cells were lysed and luciferase activity was determined using the Luciferase Assay System (Promega, Charbonnières-les-bains, France). Beta galactosidase activity was assessed using the Galacto Star kit (Applied Biosystems, Courtaboeuf, France) to normalize luciferase activity data.

hPR-A and hPR-B = experiment: MMTV-Luc reporter gene transactivation in HBE cells transfected with hPR-A and/or hPR-B; format: cell-based, human
Protocol: as §2, §3, §4

[5] = system: metastatic breast cancers; conditions: cited from earlier work; for disease stabilization / objective response rate: 123 postmenopausal women, second or third line, mifepristone or onapristone pooled
HBCx-34 tumors = conditions: model characterisation; cited from earlier work

CNc1ccc([C@H]2C[C@@]3(C)[C@@H](CC[C@]3(OC(C)=O)C(C)=O)[C@@H]3CCC4=CC(=O)CCC4=C32)cc1 [CDB-3877]
inhibition at 0.1 µM (GR [1]): 18.1 ± 11.8% | inhibition at 0.1 µM (GR [2]): 26.5 ± 9.1%

C[C@]12CC[C@@H]3c4ccc(O)cc4CC[C@H]3[C@@H]1CC[C@@H]2O [E2, 17β estradiol]
proliferative activity (Ki67) in lobules ([3]; E2 treated group vs control group): slightly but not significantly increased | mitotic index (Ki67) in ducts ([3]; E2 treated group, p<0.05): 3.1±0.7 fold induction compared to the control group | concentration at 28 days [4]: 0.0369 ± 0.00425 ng/mL

CC#C[C@]1(O)CC[C@H]2[C@@H]3CCC4=CC(=O)CCC4=C3[C@@H](c3ccc(N(C)C)cc3)C[C@@]21C [RU-486, mifepristone]
PR antagonist response on MMTV-Luc transactivation at 1 nM (PR; P 100 nM, antagonist 1 nM): Partial antagonist responses | PR antagonist action on MMTV-Luc transactivation (PR; P 100 nM, antagonist 1000 to 10 nM): potent PR antagonist actions from 1000 to 10 nM | progestational agonist properties on reporter gene transcription (PR; compound alone): did not exhibit progestational agonist properties | inhibition of P induced MMTV-Luc transactivation (hPR-A and hPR-B; HBE cells co-transfected with hPR-A and hPR-B, P 100 nM, antagonist 1 to 1000 nM): inhibited P induced MMTV11 Luc transactivation in a dose dependent manner from 1 000 to 10 nM | progestational agonist properties on reporter gene transcription (hPR-A and hPR-B; HBE cells, compound alone): did not exhibit progestational agonist properties | disease stabilization [5]: 43% | objective response rate [5]: 11% | side effects that stopped clinical studies [5]: anti-glucocorticoid

CCCCCOC(=O)Nc1nc(=O)n([C@@H]2O[C@H](C)[C@@H](O)[C@H]2O)cc1F [capecitabine]
responsiveness of the HBCx-34 tumor (HBCx-34 tumors): responsive

CC(=O)O[C@@]12CO[C@@H]1C[C@H](O)[C@@]1(C)C(=O)[C@H](O)C3=C(C)[C@@H](OC(=O)[C@H](O)[C@@H](NC(=O)OC(C)(C)C)c4ccccc4)C[C@@](O)([C@@H](OC(=O)c4ccccc4)[C@H]21)C3(C)C [docetaxel]
responsiveness of the HBCx-34 tumor (HBCx-34 tumors): responsive

CN(C)c1ccc([C@H]2C[C@]3(C)[C@@H](CC[C@]3(O)CCCO)[C@@H]3CCC4=CC(=O)CCC4=C32)cc1 [onapristone]
disease stabilization [5]: 43% | objective response rate [5]: 11% | side effects that stopped clinical studies [5]: liver toxic
